Assays:
Type in all cases: cell-based, human
JEG-3 cells [1] = test: CellTiter-Glo luminescent cell viability assay (HTTS); conditions: for Viability ↓, lowest concentration at which the mean response value exceeded the mean control value ± 2*SD (rough binning): decrease; for cell viability relative to vehicle control (rough binning): after 24 h, in at least one concentration; for Viability ↑, lowest concentration at which the mean response value exceeded the mean control value ± 2*SD (rough binning): increase
Text: (§1) JEG-3 human choriocarcinoma trophoblastic cells (American Type Culture Collection, VA, United States) were maintained in sterile-filtered Minimum Essential Media (MEM) supplemented with L-glutamine and phenol red (Thermo Fisher Scientific, MA, United States), 10% (v/v) heat-inactivated BenchMark Fetal Bovine Serum (Gemini Bio, CA, United States), 1% (v/v) sodium pyruvate (Thermo Fisher Scientific, MA, United States), and 1% (v/v) penicillin streptomycin (Sigma Aldrich, MO, United States). Cells were maintained in an incubator at 37°C with 5% CO2. JEG-3 cells were cultured in 10 cm tissue culture plates and cell passage numbers were recorded.
(§2) A total of 42 perfluoroalkyl substances (PFAS) were evaluated (Supplementary Table S1 contains source and purity). PFAS stock solutions were maintained in 100% methanol as previous work has shown certain PFAS degrade when stored in dimethyl sulfoxide (DMSO; [Gaballah et al., 2020]). […] The vehicle control group consisted of 97.5% media + 2.5% methanol to match the concentration of methanol in the media at the highest PFAS concentration tested (500 µM). Menadione (50–500 µM) was used as a positive control for cytotoxicity assessment. PFAS were de-identified and assigned random numbers to eliminate bias. Chemical exposure plate maps were designed so that all experimental conditions were tested in at least technical duplicates per plate. The outer edges of each plate received media alone and were excluded from all analyses to avoid edge effects. Each plate map included 14 technical replicates of the vehicle control group and 14 technical replicates of media only. Biological replicates were defined as separate 384 well plates tested on separate days using different cell passages. The experimental workflow is depicted in Supplementary Figure S1.
(§3) JEG-3 cells were counted using a Z2 Coulter Particle Counter (Beckman Coulter, CA, United States) and seeded at a density of 2,500 cells per well in black-walled, clear bottom 384 well plates (Corning, #3764) and allowed to adhere overnight. Approximately 24 h later, 384 well plates were imaged using an IncuCyte Zoom live cell imager (Essen BioScience Inc., MI, United States) to obtain baseline cellular confluence measurements prior to chemical dosing (0 h). Media was removed from wells and replaced with fresh media containing chemical treatments (exposure media) using a Viaflo liquid handling device (Integra Biosciences, NH, United States). Within 30 min of exposure media application, plates were again imaged for cellular confluence using the IncuCyte Zoom. Plates were incubated with exposure media for 24 h and then imaged again using the IncuCyte Zoom (24 h).
In the same plate evaluated for mitochondrial membrane potential, cell viability measures were duplexed using the CellTiter-Glo (CTG) Luminescent Cell Viability Assay (Promega, WI, United States). CTG reagent was added to each well at a volume of 20 µl. The plate was left at room temperature to incubate for 5 min and then 20 µl from each well was transferred to a low-volume, round-bottom, white 384 well plate (Corning, NY, United States). The CTG reagent lyses cellular and mitochondrial membranes and binds to adenosine triphosphate (ATP) released by cells, which produces a luminescence signal. The intensity of the luminescence was considered a proxy measure for the number of live cells in a well. The luminescence intensities were measured using the CLARIOstar plate reader.
HTTS data were analyzed using a custom data analysis script in R v 1.2.5019 ([R Core Team, 2019]). Briefly, raw data points corresponding to the confluence measurements at 0 and 24 h, the fluorescence intensities corresponding to MMP, and the relative luminescence units (RLU) corresponding to cell viability were imported directly from Microsoft Excel into the R programming environment, RStudio. Separate plates run on separate days using different JEG-3 passages were considered as biologic replicates. […]

JEG-3 cells [2] = test: Proliferation, change in confluence 0-24 h (IncuCyte Zoom, HTTS); conditions: for Prolif ↓, lowest concentration at which the mean response value exceeded the mean control value ± 2*SD (rough binning): decrease; for cellular proliferation relative to vehicle control (rough binning): after 24 h, in at least one concentration; for minimal effective concentration: read-out: Prolif ↓, lowest concentration at which the mean response value exceeded the mean control value ± 2*SD (rough binning); for Prolif ↑, lowest concentration at which the mean response value exceeded the mean control value ± 2*SD (rough binning): increase
Text: as §1, §2, §3
Plate well bottom images were evaluated using automated cell masking. The automated cell masking program was developed using IncuCyte Zoom base software. Cell masking parameters were defined using a training set of JEG-3 cell images obtained prior to conducting the experiments and following IncuCyte Zoom software recommendations. Briefly, the training images were obtained from cell culture plates with varying levels of JEG-3 cellular confluence (ranging from ∼15% confluent to ∼95% confluent). Parameters for the automated cell masking were first manually set by an experimenter for 3-6 images of low (∼15–30%), medium (∼30–70%), and high confluence (∼70% or greater). The training images were then evaluated by the automated masking program and manually checked to ensure the parameters were sufficiently strict to ignore background (e.g., blank space on the plate well bottom) but adequately sensitive to detect cell borders. The masking program was then implemented on the experimental plates to obtain a baseline cellular confluence measurement at 0 h and a second confluence measurement at 24 h. […]

JEG-3 cells [3] = test: Mitochondrial membrane potential, JC-10 assay (HTTS); conditions: for MMP ↓, lowest concentration at which the mean response value exceeded the mean control value ± 2*SD (rough binning): 24 h, decrease; for MMP relative to vehicle control (rough binning): after 24 h, in at least one concentration; for minimal effective concentration: read-out: MMP ↓, lowest concentration at which the mean response value exceeded the mean control value ± 2*SD (rough binning)
Text: as §1, §2, §3
The JC-10 assay (Enzo Life Sciences, NY, United States) was used to evaluate mitochondrial membrane potential, the main bioenergetic parameter that regulates respiratory rate, ATP synthesis and reactive oxygen species generation. In cells with polarized mitochondrial membranes, the JC-10 dye localizes to the mitochondrial matrix and forms red fluorescent aggregates (540/590 nm). In cells with depolarized mitochondrial membranes, the JC-10 dye localizes in the cytoplasm and converts to a green fluorescent monomer (490/525 nm). Mitochondrial membrane potential was calculated as the ratio of the green and red fluorescence intensities within a well.
At the end of the 24 h exposure period, exposure media was removed from the plate. The plate wells were then washed with 1x phosphate buffered saline (1x PBS). After washing, the JC-10 reagent was suspended in fresh 1x PBS and 20 µl was added to each well at a final concentration of 20 μM (Enzo Life Sciences, NY, United States). The plate was incubated for 1 h at 37°C, and the fluorescence intensities at excitation/emission wavelengths of 490/525 nm and 540/590 nm were measured using a CLARIOstar (BMG Labtech, Offenburg, Germany) plate reader, respectively.
HTTS data were analyzed using a custom data analysis script in R v 1.2.5019 ([R Core Team, 2019]). […]

[4] = JEG-3 cells, 24 h exposure, four-parameter fit, estimates meeting inclusion criteria, read-out: Viability EC50 ± SD
[5] = JEG-3 cells, 24 h exposure, four-parameter fit, estimates meeting inclusion criteria, read-out: MMP EC50 ± SD
[6] = JEG-3 cells, 24 h exposure, four-parameter fit, estimates meeting inclusion criteria, read-out: Proliferation EC50 ± SD
[7] = Homo sapiens, JEG-3, 24 h, read-out: Viability EC50 ± SD, JEG-3 cells, 24 h exposure, four-parameter fit, estimates meeting inclusion criteria
[8] = Homo sapiens, JEG-3, 24 h, read-out: Proliferation EC50 ± SD, JEG-3 cells, 24 h exposure, four-parameter fit, estimates meeting inclusion criteria
[9] = Homo sapiens, JEG-3, 24 h, read-out: MMP EC50 ± SD, JEG-3 cells, 24 h exposure, four-parameter fit, estimates meeting inclusion criteria

| Structure (SMILES) | EC50 (JEG-3 cells [1]; [4]) [µM] | cell viability relative to vehicle control (rough binning) (JEG-3 cells [1]) | cellular proliferation relative to vehicle control (rough binning) (JEG-3 cells [2]) | MMP relative to vehicle control (rough binning) (JEG-3 cells [3]) | EC50 (JEG-3 cells [2]; [6]) [µM] | EC50 (JEG-3 cells [1]; [7]) [µM] | minimal effective concentration (JEG-3 cells [2]; Homo sapiens, JEG-3, 24 h) [µM] | EC50 (JEG-3 cells [2]; [8]) [µM] | minimal effective concentration (JEG-3 cells [3]; Homo sapiens, JEG-3, 24 h) [µM] | other results |
| --- | --- | --- | --- | --- | --- | --- | --- | --- | --- | --- |
| O=C(O)C(F)(F)C(F)(F)C(F)(F)C(F)(F)C(F)(F)C(F)(F)C(F)(F)C(F)F [9-H-Perfluorononanoic acid] | 350 ± 43.1 |  |  |  |  |  |  |  |  | EC50 (JEG-3 cells [2]; JEG-3 cells, raw model output including fits that did not meet inclusion criteria, read-out: Proliferation EC50 ± SD (raw values)): 1230 ± 118 µM; EC50 (JEG-3 cells [3]; [5]): 187 ± 27.6 µM |
| O=P(O)(OCCC(F)(F)C(F)(F)C(F)(F)C(F)(F)C(F)(F)C(F)(F)C(F)(F)C(F)(F)F)OCCC(F)(F)C(F)(F)C(F)(F)C(F)(F)C(F)(F)C(F)(F)C(F)(F)C(F)(F)F [8:2 Fluorotelomer phosphate diester] |  | reduced cell viability | reduced cellular proliferation | reduced MMP |  |  |  |  |  | Viability ↓, lowest concentration at which the mean response value exceeded the mean control value ± 2*SD (rough binning) (JEG-3 cells [1]; JEG-3 cells, 24 h): 50 µM; Prolif ↓, lowest concentration at which the mean response value exceeded the mean control value ± 2*SD (rough binning) (JEG-3 cells [2]; JEG-3 cells, 24 h): 100 µM; MMP ↓, lowest concentration at which the mean response value exceeded the mean control value ± 2*SD (rough binning) (JEG-3 cells [3]; JEG-3 cells): 350 µM |
| O=C(O)C(F)(F)C(F)(F)C(F)(F)C(F)(F)C(F)(F)C(F)(F)C(F)F [8-H-Perfluorooctanoic acid] | 318 ± 183 |  |  |  | 441 ± 18.1 |  |  |  |  | EC50 (JEG-3 cells [3]; [5]): 147 ± 27.1 µM |
| CCN(CC(=O)O)S(=O)(=O)C(F)(F)C(F)(F)C(F)(F)C(F)(F)C(F)(F)C(F)(F)C(F)(F)C(F)(F)F [2-(N-Ethylperfluorooctanesulfonamido)acetic acid] |  | reduced cell viability |  | reduced MMP |  | 203 ± 44.7 | 250 | 204 ± 17.7 | 150 | Viability ↓, lowest concentration at which the mean response value exceeded the mean control value ± 2*SD (rough binning) (JEG-3 cells [1]; JEG-3 cells, 24 h): 250 µM; EC50 (JEG-3 cells [2]; Homo sapiens, JEG-3, 24 h, read-out: proliferation EC50 ± SE, JEG-3 cells, 24 h): 204 ± 18 µM; Prolif ↑, lowest concentration at which the mean response value exceeded the mean control value ± 2*SD (rough binning) (JEG-3 cells [2]; JEG-3 cells, 24 h): 50 µM |
| O=S(=O)(O)C(F)(F)C(F)(F)C(F)(F)C(F)(F)F [Perfluorobutanesulfonic acid] | 330 ± 35 | increased cell viability |  | reduced MMP | 223 ± 76.7 |  |  |  |  | Viability ↑, lowest concentration at which the mean response value exceeded the mean control value ± 2*SD (rough binning) (JEG-3 cells [1]; JEG-3 cells, 24 h): 50 µM; MMP ↓, lowest concentration at which the mean response value exceeded the mean control value ± 2*SD (rough binning) (JEG-3 cells [3]; JEG-3 cells): 50 µM |
| O=C(O)C(F)(F)C(F)(F)C(F)(F)C(F)(F)C(F)(F)F [Perfluorohexanoic acid] |  | increased cell viability | reduced cellular proliferation | reduced MMP |  |  | 100 |  | 100 | Viability ↑, lowest concentration at which the mean response value exceeded the mean control value ± 2*SD (rough binning) (JEG-3 cells [1]; JEG-3 cells, 24 h): 300 µM; EC50 (JEG-3 cells [2]; Homo sapiens, JEG-3, read-out: Proliferation EC50 ± SD (raw values), JEG-3 cells, raw model output including fits that did not meet inclusion criteria): 10418 ± 10 µM; EC50 (JEG-3 cells [3]; [9]): 142 ± 12.6 µM; EC50 (JEG-3 cells [3]; Homo sapiens, JEG-3, 24 h, read-out: MMP EC50 ± SE, JEG-3 cells, 24 h): 141 ± 11.1 µM |
| O=P(O)(O)OCCC(F)(F)C(F)(F)C(F)(F)C(F)(F)C(F)(F)C(F)(F)F [6:2 Fluorotelomer phosphate monoester] | 183 ± 21.7 |  |  |  | 193 ± 3.8 |  |  |  |  | EC50 (JEG-3 cells [1]; JEG-3 cells, 24 h, read-out: viability EC50 ± SE): 183 ± 22 µM; EC50 (JEG-3 cells [2]; JEG-3 cells, 24 h, read-out: proliferation EC50 ± SE): 193 ± 4 µM; EC50 (JEG-3 cells [3]; [5]): 248 ± 62.1 µM |
| O=S(=O)(O)CCC(F)(F)C(F)(F)C(F)(F)C(F)(F)C(F)(F)C(F)(F)C(F)(F)C(F)(F)F [8:2 Fluorotelomer sulfonic acid] |  |  |  |  |  | 160 ± 45.7 |  | 321 ± 171 |  | EC50 (JEG-3 cells [1]; Homo sapiens, JEG-3, 24 h, read-out: viability EC50 ± SE, JEG-3 cells, 24 h): 160 ± 46 µM; EC50 (JEG-3 cells [3]; [9]): 331 ± 5.7 µM |
| O=S(=O)(O)C(F)(F)C(F)(F)C(F)(F)C(F)(F)C(F)(F)C(F)(F)C(F)(F)F [Perfluoroheptanesulfonic acid] |  |  |  |  | 296 ± 201 |  |  |  |  | EC50 (JEG-3 cells [1]; JEG-3 cells, raw model output including fits that did not meet inclusion criteria, read-out: Viability EC50 ± SD (raw values)): 1980 ± 2480 µM; Prolif ↓, lowest concentration at which the mean response value exceeded the mean control value ± 2*SD (rough binning) (JEG-3 cells [2]; JEG-3 cells, 24 h): 232.5 µM; Prolif ↑, lowest concentration at which the mean response value exceeded the mean control value ± 2*SD (rough binning) (JEG-3 cells [2]; JEG-3 cells, 24 h): 23.25 µM; EC50 (JEG-3 cells [3]; JEG-3 cells, raw model output including fits that did not meet inclusion criteria, read-out: MMP EC50 ± SD (raw values)): 874 ± 1750 µM |
| O=C(O)C(F)(F)OC(F)(F)C(F)(F)OC(F)(F)C(F)(F)OC(F)(F)C(F)(F)C(F)(F)C(F)(F)F [Perfluoro-3,6,9-trioxatridecanoic acid] |  | reduced cell viability | reduced cellular proliferation | reduced MMP |  | 195 ± 54.6 | 400 | 332 ± 34.1 | 50 | Viability ↓, lowest concentration at which the mean response value exceeded the mean control value ± 2*SD (rough binning) (JEG-3 cells [1]; JEG-3 cells, 24 h): 300 µM |
| O=C(O)C(F)(F)OC(F)(F)C(F)(F)OC(F)(F)C(F)(F)OC(F)(F)F [Perfluoro-3,6,9-trioxadecanoic acid] |  |  | reduced cellular proliferation | reduced MMP |  | 267 ± 26.8 | 350 | 303 ± 30.1 | 450 |  |
